The text below walks through data of patent publication US12077503B2, “Substituted cyclic amides and their use as herbicides” (FMC CORPORATION, priority 2015, dated 2024).

The structures appear in SMILES notation. Read-outs that look alike come from different tables or passages of the source.

Holding throughout (format): in vivo
Assay [1] has as its system barnyardgrass (Echinochloa crus-galli). The assay is described as follows: Test A preemergence. The settings on record: Echinochloa crus-galli, pre-emergence, 240 h; for pest or weed control at 125 g/ha: 125 g ai/ha; for pest or weed control at 500 g/ha: 500 g ai/ha. An outline of the steps:
(§1)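 Seeds sprayed preemergence with a directed soil spray, or plants at 2 to 10 cm height and one- to two-leaf stage sprayed postemergence, with test chemicals in a non-phytotoxic solvent mixture containing surfactant, in loam soil–sand blend. Injury rated visually against untreated controls after about 10 d in greenhouse, 0 (no effect) to 100 (complete control).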

In assay [2] the test system is ryegrass, Italian (Italian ryegrass, Lolium multiflorum). Description: Test A preemergence. The settings on record: Lolium multiflorum, pre-emergence, 240 h; for pest or weed control at 125 g/ha: 125 g ai/ha; for pest or weed control at 500 g/ha: 500 g ai/ha. Put shortly:
as §1

Assay [3] deals with ragweed (common ragweed, Ambrosia elatior). The assay is described as follows: Test A preemergence. The settings on record: Ambrosia artemisiifolia, pre-emergence, 240 h; for pest or weed control at 125 g/ha: 125 g ai/ha; for pest or weed control at 500 g/ha: 500 g ai/ha. Put shortly: as §1
Assay [4] relates to giant foxtail (Setaria faberii). Description: Test A preemergence. The settings on record: Setaria faberi, pre-emergence, 240 h; for pest or weed control at 125 g/ha: 125 g ai/ha; for pest or weed control at 500 g/ha: 500 g ai/ha. An outline of the steps:
as §1

In assay [5] the test system is pigweed (Amaranthus retroflexus). The assay is described as follows: Test A preemergence. The settings on record: Amaranthus retroflexus, pre-emergence, 240 h; for pest or weed control at 125 g/ha: 125 g ai/ha; for pest or weed control at 500 g/ha: 500 g ai/ha.
The subject of assay [6] is Kochia (Kochia scoparia). The assay is described as follows: Test A preemergence. The settings on record: Bassia scoparia, pre-emergence, 240 h; for pest or weed control at 125 g/ha: 125 g ai/ha; for pest or weed control at 500 g/ha: 500 g ai/ha. An outline of the steps:
as §1

The subject of another assay is corn (Zea mays). The assay is described as follows: Test A postemergence. The settings on record: Zea mays, post-emergence, 240 h, 125 g ai/ha. An outline of the steps:
as §1

The subject of assay [7] is blackgrass (Alopecurus myosuroides). Description: Test A postemergence. The settings on record: Alopecurus myosuroides, post-emergence, 240 h, 125 g ai/ha. An outline of the steps:
as §1

In assay [8] the test system is Galium (catchweed bedstraw, Galium aparine). The assay is described as follows: Test A postemergence. The settings on record: Galium, post-emergence, 240 h, 125 g ai/ha. Put shortly: as §1
The subject of assay [9] is barnyardgrass (Echinochloa crus-galli). The assay is described as follows: Test A postemergence. The settings on record: Echinochloa crus-galli, post-emergence, 240 h, 125 g ai/ha. An outline of the steps: as §1
The test system of assay [10] is ryegrass, Italian (Italian ryegrass, Lolium multiflorum). The assay is described as follows: Test A postemergence. The settings on record: Lolium multiflorum, post-emergence, 240 h, 125 g ai/ha. Put shortly:
as §1

The subject of assay [11] is wheat (Triticum aestivum). The assay is described as follows: Test A postemergence. The settings on record: Triticum aestivum, post-emergence, 240 h, 125 g ai/ha. Put shortly:
as §1

The test system of assay [12] is ragweed (common ragweed, Ambrosia elatior). The assay is described as follows: Test A postemergence. The settings on record: Ambrosia artemisiifolia, post-emergence, 240 h, 125 g ai/ha. Put shortly: as §1
The test system of assay [13] is giant foxtail (Setaria faberii). The assay is described as follows: Test A postemergence. The settings on record: Setaria faberi, post-emergence, 240 h, 125 g ai/ha. Put shortly: as §1
The subject of assay [14] is Kochia (Kochia scoparia). Description: Test A postemergence. The settings on record: Bassia scoparia, post-emergence, 240 h, 125 g ai/ha. An outline of the steps: as §1

Turning to `CN1C[C@H](c2cccc(F)c2)[C@@H](C(=O)Nc2ccccc2S(C)(=O)=O)C1=O` [Compound 824], the pest or weed control at 125 g/ha in assay [1] (preemergence, 0 to 100 scale where 0 is no effect and 100 is complete control, read-out: Barnyardgrass plant response rating) was determined as 90%; in assay [2] (preemergence, 0 to 100 scale where 0 is no effect and 100 is complete control, read-out: Ryegrass, Italian plant response rating) it was 20%; in assay [3] (preemergence, 0 to 100 scale where 0 is no effect and 100 is complete control, read-out: Ragweed plant response rating), 20%; in assay [4] (preemergence, 0 to 100 scale where 0 is no effect and 100 is complete control, read-out: Foxtail, Giant plant response rating), 90%; in [5] (preemergence, 0 to 100 scale where 0 is no effect and 100 is complete control, read-out: Pigweed plant response rating), 0%; in the assay on Kochia (Kochia scoparia) [6] (preemergence, 0 to 100 scale where 0 is no effect and 100 is complete control, read-out: Kochia plant response rating), 60%. In addition, the pest or weed control at 125 g/ha in [7] (postemergence, visual injury rating after approximately 10 d, read-out: Blackgrass plant response rating (0 to 100 scale, 0 no effect, 100 complete control)) stood at 20%; in assay [8] (postemergence, visual injury rating after approximately 10 d, read-out: Galium plant response rating (0 to 100 scale, 0 no effect, 100 complete control)), 40%; in assay [9] (postemergence, visual injury rating after approximately 10 d, read-out: Barnyardgrass plant response rating (0 to 100 scale, 0 no effect, 100 complete control)), 90%; in assay [10] (postemergence, visual injury rating after approximately 10 d, read-out: Ryegrass, Italian plant response rating (0 to 100 scale, 0 no effect, 100 complete control)), 30%; in assay [12] (postemergence, visual injury rating after approximately 10 d, read-out: Ragweed plant response rating (0 to 100 scale, 0 no effect, 100 complete control)), 30%; in assay [13] (postemergence, visual injury rating after approximately 10 d, read-out: Foxtail, Giant plant response rating (0 to 100 scale, 0 no effect, 100 complete control)), 90%. Further, in the assay with Kochia (Kochia scoparia) [14] (postemergence, visual injury rating after approximately 10 d, read-out: Kochia plant response rating (0 to 100 scale, 0 no effect, 100 complete control)), the pest or weed control at 125 g/ha came out at 0%. In addition, the pest or weed control at 500 g/ha came out at 100% in assay [1] (Preemergence, visual injury vs untreated controls after approximately 10 d, read-out: Barnyardgrass plant response rating (0 to 100 scale where 0 is no effect and 100 is complete control)); 40% in [2] (Preemergence, visual injury vs untreated controls after approximately 10 d, read-out: Ryegrass, Italian plant response rating (0 to 100 scale where 0 is no effect and 100 is complete control)); 50% in [3] (Preemergence, visual injury vs untreated controls after approximately 10 d, read-out: Ragweed plant response rating (0 to 100 scale where 0 is no effect and 100 is complete control)); 100% in assay [4] (Preemergence, visual injury vs untreated controls after approximately 10 d, read-out: Foxtail, Giant plant response rating (0 to 100 scale where 0 is no effect and 100 is complete control)); 40% in assay [5] (Preemergence, visual injury vs untreated controls after approximately 10 d, read-out: Pigweed plant response rating (0 to 100 scale where 0 is no effect and 100 is complete control)); 70% in the assay with Kochia (Kochia scoparia) [6] (Preemergence, visual injury vs untreated controls after approximately 10 d, read-out: Kochia plant response rating (0 to 100 scale where 0 is no effect and 100 is complete control)). The plant injury at 125 g/ha in the assay on corn (Zea mays) (postemergence, visual injury rating after approximately 10 d, read-out: Corn plant response rating (0 to 100 scale, 0 no effect, 100 complete control)) stood at 0%; in assay [11] (postemergence, visual injury rating after approximately 10 d, read-out: Wheat plant response rating (0 to 100 scale, 0 no effect, 100 complete control)), 0%.
Take `CN1C[C@H](c2csc(C(F)(F)F)c2)[C@@H](C(=O)Nc2cccc(F)c2F)C1=O` [Compound 959]: the pest or weed control at 125 g/ha in assay [1] (Preemergence, visual injury rating after approximately 10 d, read-out: Barnyardgrass plant response rating (0 to 100 scale, 0 is no effect, 100 is complete control)) is 90%; in [2] (Preemergence, visual injury rating after approximately 10 d, read-out: Ryegrass, Italian plant response rating (0 to 100 scale, 0 is no effect, 100 is complete control)) it was 20%; in assay [3] (Preemergence, visual injury rating after approximately 10 d, read-out: Ragweed plant response rating (0 to 100 scale, 0 is no effect, 100 is complete control)), 70%; in assay [4] (Preemergence, visual injury rating after approximately 10 d, read-out: Foxtail, Giant plant response rating (0 to 100 scale, 0 is no effect, 100 is complete control)), 90%; in assay [5] (Preemergence, visual injury rating after approximately 10 d, read-out: Pigweed plant response rating (0 to 100 scale, 0 is no effect, 100 is complete control)), 0%; in the assay with Kochia (Kochia scoparia) [6] (Preemergence, visual injury rating after approximately 10 d, read-out: Kochia plant response rating (0 to 100 scale, 0 is no effect, 100 is complete control)), 70%. In addition, the pest or weed control at 125 g/ha in [7] (Postemergence, visual injury after approximately 10 d, 0 to 100 scale where 0 is no effect and 100 is complete control, read-out: Plant response rating, Blackgrass) amounted to 30%; in [8] (Postemergence, visual injury after approximately 10 d, 0 to 100 scale where 0 is no effect and 100 is complete control, read-out: Plant response rating, Galium), 40%; in assay [9] (Postemergence, visual injury after approximately 10 d, 0 to 100 scale where 0 is no effect and 100 is complete control, read-out: Plant response rating, Barnyardgrass), 90%; in assay [10] (Postemergence, visual injury after approximately 10 d, 0 to 100 scale where 0 is no effect and 100 is complete control, read-out: Plant response rating, Ryegrass, Italian) it was 30%; in assay [12] (Postemergence, visual injury after approximately 10 d, 0 to 100 scale where 0 is no effect and 100 is complete control, read-out: Plant response rating, Ragweed), 0%; in assay [13] (Postemergence, visual injury after approximately 10 d, 0 to 100 scale where 0 is no effect and 100 is complete control, read-out: Plant response rating, Foxtail, Giant), 80%. In addition, in the assay on Kochia (Kochia scoparia) [14] (Postemergence, visual injury after approximately 10 d, 0 to 100 scale where 0 is no effect and 100 is complete control, read-out: Plant response rating, Kochia), the pest or weed control at 125 g/ha worked out at 50%. Besides, the pest or weed control at 500 g/ha in [1] (preemergence, visual injury rating about 10 d after treatment, 0 to 100 scale (0 no effect, 100 complete control), read-out: Barnyardgrass plant response rating) was 100%; in assay [2] (preemergence, visual injury rating about 10 d after treatment, 0 to 100 scale (0 no effect, 100 complete control), read-out: Ryegrass, Italian plant response rating), 60%; in assay [3] (preemergence, visual injury rating about 10 d after treatment, 0 to 100 scale (0 no effect, 100 complete control), read-out: Ragweed plant response rating) it was 70%; in assay [4] (preemergence, visual injury rating about 10 d after treatment, 0 to 100 scale (0 no effect, 100 complete control), read-out: Foxtail, Giant plant response rating), 100%; in assay [5] (preemergence, visual injury rating about 10 d after treatment, 0 to 100 scale (0 no effect, 100 complete control), read-out: Pigweed plant response rating), 30%; in the assay on Kochia (Kochia scoparia) [6] (preemergence, visual injury rating about 10 d after treatment, 0 to 100 scale (0 no effect, 100 complete control), read-out: Kochia plant response rating) it was 90%. Also, the Corn plant response rating (crop injury, 0 = no effect, 100 = complete kill) at 125 g/ha in the assay with corn (Zea mays) (Postemergence, visual injury after approximately 10 d, 0 to 100 scale where 0 is no effect and 100 is complete control) was 30%. Moreover, the plant injury at 125 g/ha in [11] (Postemergence, visual injury after approximately 10 d, 0 to 100 scale where 0 is no effect and 100 is complete control, read-out: Plant response rating, Wheat) worked out at 20%.
